Usually mass density stands for the mass of a sample divided by its volume. The term refractive index denotes the speed of light in vacuum divided by its phase velocity in the sample.

Mass density and refractive index data for eleven compounds are collected here from the NIST ThermoML archive (doi:10.1016/j.jct.2010.12.012).

Molecules are shown by their SMILES. Several values for one entry are separate records, joined by “and”; a condition that tells them apart may be missing. Equal entries are not always repeated. Numbers after ± are expanded uncertainties.

The conditions of data set [1]: 298.15 K; 101.33 kPa; Liquid; Vibrating tube method.
The nature of data set [2]: refractive index (Na D-line) (dimensionless). Particulars: 298.15 K; 101.33 kPa; Liquid; Standard Abbe refractometry.
A short description of data set [3]: xn = mol fraction of the nth substance listed. Particulars: 298.15 K, 101 kPa, Liquid, Vibrating tube method.

As for `CCCCn1cc[n+](C)c1.COS(=O)(=O)[O-]` [1-butyl-3-methylimidazolium methyl sulfate], in data set [1], the mass density came out at 1212.59 ± 0.41 kg/m3. Moreover, the refractive index in data set [2] was determined as 1.47792 ± 0.00037.

In the case of `CCCCn1cc[n+](C)c1.COS(=O)(=O)[O-]` [1-butyl-3-methylimidazolium methyl sulfate] + C1CCCCC1, the mass density in data set [3] (x2 = 0.039) is reported as 1204.53 ± 1.3 kg/m3.

As to `CCCCn1cc[n+](C)c1.COS(=O)(=O)[O-]` [1-butyl-3-methylimidazolium methyl sulfate] + CC1CCCCC1, in data set [3] (x2 = 0.028), the mass density worked out at 1207.3 ± 1.3 kg/m3.

Regarding `CCCCn1cc[n+](C)c1.COS(=O)(=O)[O-]` [1-butyl-3-methylimidazolium methyl sulfate] + Cc1ccccc1, the mass density in data set [3] (x2 = 0.328) is 1151 ± 1.2 kg/m3 and 1153.43 ± 1.2 kg/m3.

Take `C1CCCCC1` [cyclohexane]: the mass density in data set [1] turned out to be 773.8 ± 0.24 kg/m3. For the same compound, the refractive index in data set [2] is listed as 1.4236 ± 0.00037.

`C1=CCCCC1` [cyclohexene]: in data set [1], the mass density is 805.69 ± 0.24 kg/m3. Further, the refractive index in data set [2] is 1.44378 ± 0.00037.

As for `C1=CCCCC1` [cyclohexene] + CCCCn1cc[n+](C)c1.COS(=O)(=O)[O-], in data set [3] (x1 = 0.071), the mass density is recorded as 1201.85 ± 1.9 kg/m3.

Consider `C1CCCCCCC1` [cyclooctane], for which the mass density in data set [1] was found to be 831.47 ± 0.24 kg/m3. Besides, the refractive index in data set [2] amounted to 1.45598 ± 0.00037.

Consider `C1CCCCCCC1` [cyclooctane] + CCCCn1cc[n+](C)c1.COS(=O)(=O)[O-], for which, in data set [3] (x1 = 0.02), the mass density was found to be 1207.63 ± 1.3 kg/m3.

On to `CC1CCCCC1` [methylcyclohexane], for which, in data set [1], the mass density turned out to be 765.02 ± 0.24 kg/m3. Further, the refractive index in data set [2] came to 1.42062 ± 0.00037.

`Cc1ccccc1` [toluene]: the mass density in data set [1] came to 862.17 ± 0.1 kg/m3. Also, the refractive index in data set [2] is 1.49399 ± 0.00031.
